Earlier results, collected in patent US20100015044A1, “Methods and compositions for diagnosis of iga-and igm-mediated kidney diseases” (priority 2005, published 2010).

What was measured:
IgG = details: transfection studies in leukocytes
murine IgM = murine IgM (Mus musculus, UniProt P01872)
IgM = IgM (Homo sapiens, UniProt P01871)
Sequence of IgM (P01871 1-433 limits assumed): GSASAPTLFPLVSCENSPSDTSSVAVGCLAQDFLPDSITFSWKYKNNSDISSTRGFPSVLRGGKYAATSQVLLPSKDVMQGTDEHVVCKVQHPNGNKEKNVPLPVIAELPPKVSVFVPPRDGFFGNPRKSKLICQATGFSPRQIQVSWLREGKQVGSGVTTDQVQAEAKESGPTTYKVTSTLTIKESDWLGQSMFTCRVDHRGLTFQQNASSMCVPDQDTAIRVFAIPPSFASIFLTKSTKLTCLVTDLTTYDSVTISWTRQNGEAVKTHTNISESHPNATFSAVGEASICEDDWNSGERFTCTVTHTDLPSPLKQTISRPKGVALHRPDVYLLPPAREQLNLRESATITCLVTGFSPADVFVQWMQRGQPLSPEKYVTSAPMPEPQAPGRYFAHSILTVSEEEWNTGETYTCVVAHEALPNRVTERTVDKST
Sequence of IgM (P01591 23-159 partner): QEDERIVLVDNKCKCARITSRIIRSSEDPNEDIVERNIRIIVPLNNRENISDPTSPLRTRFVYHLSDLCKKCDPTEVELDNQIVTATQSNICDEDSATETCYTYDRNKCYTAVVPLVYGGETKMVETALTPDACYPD

Sequence of murine IgM (P01872 whole entry, other chains not shown): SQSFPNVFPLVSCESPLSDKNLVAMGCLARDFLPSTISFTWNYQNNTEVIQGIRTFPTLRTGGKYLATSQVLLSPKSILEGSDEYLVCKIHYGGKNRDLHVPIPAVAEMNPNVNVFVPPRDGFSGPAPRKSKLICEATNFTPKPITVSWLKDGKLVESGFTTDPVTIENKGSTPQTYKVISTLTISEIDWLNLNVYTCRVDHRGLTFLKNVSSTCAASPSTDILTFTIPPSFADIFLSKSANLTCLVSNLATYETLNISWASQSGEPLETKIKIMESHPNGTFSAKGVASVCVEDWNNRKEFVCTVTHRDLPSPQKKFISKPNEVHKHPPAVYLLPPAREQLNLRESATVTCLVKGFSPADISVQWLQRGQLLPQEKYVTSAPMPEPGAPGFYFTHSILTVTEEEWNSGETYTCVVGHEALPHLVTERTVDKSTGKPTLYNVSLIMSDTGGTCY
Sequence of murine IgM (P01592 23-159 partner limits assumed, other chains not shown): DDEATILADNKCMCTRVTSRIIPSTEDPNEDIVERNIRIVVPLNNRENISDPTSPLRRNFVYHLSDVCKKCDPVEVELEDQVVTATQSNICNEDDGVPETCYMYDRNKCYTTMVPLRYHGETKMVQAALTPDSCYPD

Molecule: FcαR1: human membrane glycoprotein Fc receptor for IgA
- binding to IgG (IgG): does not bind IgG

Molecule: YDWIPSSAW (IgM binding peptide) [YDWIPS SAW]
- binding to murine IgM (murine IgM): high affinity
- binding to other immunoglobulins (other immunoglobulins): no binding abilities
- inhibition of human rheumatoid factor induced agglutination of IgG-coated latex beads (human rheumatoid factor): inhibits

Molecule: Sap: 50-residue synthetic peptide including the 29-residue IgA-binding region of Sir22, with C-terminal cysteine (YYALSDAKEEEPRYKALRGENQDLREKERKYQDKIKKLEEKEKNLEKKSC; Sap)
- binding to human IgA (human IgA): specifically binds

B1: human Fcα/μ receptor: human receptor constitutively expressed on the majority of B-lymphocytes and macrophages (protein, listed as Homo sapiens)
chain: MDGEATVKPGEQVPLWTHGWPPDDPSPSFAAGSSFALPQKRPHPRWLWEGSLPSRTHLRAMGTLRPSSPLCWREESSFAAPNSLKGSRLVSGEPGGAVTIQCHYAPSSVNRHQRKYWCRLGPPRWICQTIVSTNQYTHHRYRDRVALTDFPQRGLFVVRLSQLSPDDIGCYLCGIGSENNMLFLSMNLTISAGPASTLPTATPAAGELTMRSYGTASPVANRWTPGTTQTLGQGTAWDTVASTPGTSKTTASAEGRRTPGATRPAAPGTGSWAEGSVKAPAPIPESPPSKSRSMSNTTEGVWEGTRSSVTNRARASKDRREMTTTKADRPREDIEGVRIALDAAKKVLGTIGPPALVSETLAWEILPQATPVSKQQSQGSIGETTPAAGMWTLGTPAADVWITSMEAASGEGSAAGDLDAATGDRGPQATLSQTPAVGPWGPPGKESSVKRATCPGLSTLKEIKVSAVLTQNPHSLLCVSAAQEAERVTLIQMTHFLEVNPQADQLPHVERKMLQDDSLPAGASLTAPERNPGP
- binding to IgA (IgA): intermediate to high affinity
- binding to IgM (IgM): intermediate to high affinity
